For orientation: inhibition means the relative decrease from the control value, in per cent.

The record followed here is patent publication US7109193B2, “Tricyclic diazepines tocolytic oxytocin receptor antagonists” (Wyeth, priority 2001, dated 2006).

The assay deals with T1, human oxytocin receptor (Homo sapiens, UniProt P30559).
T1 construct: host or cells: CHO cells (pcDNA3.1 vector)
T1 sequence (P30559 1-389): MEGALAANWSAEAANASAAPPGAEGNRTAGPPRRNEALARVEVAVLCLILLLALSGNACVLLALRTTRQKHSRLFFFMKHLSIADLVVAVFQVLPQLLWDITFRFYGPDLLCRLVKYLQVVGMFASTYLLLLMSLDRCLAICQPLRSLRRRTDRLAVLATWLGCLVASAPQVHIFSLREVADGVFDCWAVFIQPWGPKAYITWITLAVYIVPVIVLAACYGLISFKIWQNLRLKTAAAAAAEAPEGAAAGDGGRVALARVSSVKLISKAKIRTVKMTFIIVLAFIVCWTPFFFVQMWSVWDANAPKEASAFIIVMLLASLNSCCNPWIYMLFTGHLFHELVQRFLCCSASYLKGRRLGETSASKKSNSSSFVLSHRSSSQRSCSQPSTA
Put plainly: Oxytocin binding in Chinese Hamster Ovary cell membranes expressing human oxytocin receptors. The conditions noted are these: 100 nM, CHO cell membranes, [3H]oxytocin, values without parentheses; for inhibition at 0.1 µM: read-out: OT % inhibition @ 100% nM.

In the case of `Cc1ccccc1-c1ccc(C(=O)N2Cc3ccc(C(=O)N4CC[C@@H](N(C)C)C4)n3Cc3ccccc32)cc1C` [Example 274, [(3R)-3-(Dimethylamino)pyrrolidinyl]{10-[(2,2′-dimethyl[1,1′-biphenyl]-4-yl)carbonyl]-10,11-dihydro-5H-pyrrolo[2,1-c][1,4]benzodiazepin-3-yl}methanone], the “OT % inhibition @ 100% nM” value is recorded as 103%.

With `CN(C)[C@@H]1CCN(C(=O)c2ccc3n2Cc2ccccc2N(C(=O)c2ccc(-c4cccc5ccccc45)cc2Cl)C3)C1` [Example 277, {10-[2-Chloro-4-(1-naphthyl)benzoyl]-10,11-dihydro-5H-pyrrolo[2,1-c][1,4]benzodiazepin-3-yl}[(3R)-3-(dimethylamino)pyrrolidinyl]methanone], the “OT % inhibition @ 100% nM” value turned out to be 41%.

Take `Cc1ccccc1-c1ccc(C(=O)N2Cc3ccc(C(=O)N4CCC[C@H]4CN4CCCC4)n3Cc3ccccc32)cc1C` [Example 260, {10-[(2,2′-Dimethyl[1,1′-biphenyl]-4-yl)carbonyl]-10,11-dihydro-5H-pyrrolo[2,1-c][1,4]benzodiazepin-3-yl}[(2S)-2-(1-pyrrolidinylmethyl)pyrrolidinyl]methanone]: the “OT % inhibition @ 100% nM” value is 102%. Still for that read-out and setting: then `COc1cc(C(=O)N2Cc3ccc(C(=O)N4CCC[C@H]4CN4CCCC4)n3Cc3ccccc32)ccc1-c1ccccc1C` [Example 266, {10-[(2-Methoxy-2′-methyl[1,1′-biphenyl]-4-yl)carbonyl]-10,11-dihydro-5H-pyrrolo[2,1-c][1,4]benzodiazepin-3-yl}[(2S)-2-(1-pyrrolidinylmethyl)pyrrolidinyl]methanone], with 97%; and `COc1cc(C(=O)N2Cc3ccc(C(=O)N4CC[C@@H](N(C)C)C4)n3Cc3ccccc32)ccc1-c1ccccc1C` [Example 281, [(3R)-3-(Dimethylamino)pyrrolidinyl]{10-[(2-methoxy-2′-methyl[1,1′-biphenyl]-4-yl)carbonyl]-10,11-dihydro-5H-pyrrolo[2,1-c][1,4]benzodiazepin-3-yl}methanone], with 93%. Turning to `COc1cccc(-c2ccc(C(=O)N3Cc4ccc(C(=O)NCCN5CCCCC5)n4Cc4ccccc43)cc2C)c1` [Example 151, 10-[(3′-Methoxy-2-methyl[1,1′-biphenyl]-4-yl)carbonyl]-N-[2-(1-piperidinyl)ethyl]-10,11-dihydro-5H-pyrrolo[2,1-c][1,4]benzodiazepine-3-carboxamide], the inhibition at 0.1 µM is 47%. On the same count and under the same terms, then `Cc1ccccc1-c1ccc(C(=O)N2Cc3ccc(C(=O)NCCCn4ccnc4)n3Cc3ccccc32)cc1C` [Example 124, 10-[(2,2′-Dimethyl[1,1′-biphenyl]-4-yl)carbonyl]-N-[3-(1H-imidazol-1-yl)propyl]-10,11-dihydro-5H-pyrrolo[2,1-c][1,4]benzodiazepine-3-carboxamide], with 60%.
